From patent US20230174507A1, “IMIDAZOLE 3-OXIDE DERIVATIVE BASED ACSS2 INHIBITORS AND METHODS OF USE THEREOF” (METABOMED LTD., priority 2020, published 2023)
pIC50: −log10 of the molar value.

Tests used:
human ACSS2 protein = molecular target: T1, human ACSS2 protein (Homo sapiens, UniProt Q9NR19); test: ACSS2 cell-free activity assay (pyrophosphatase-coupled, Biomol green); details: 10 nM human ACSS2, 90 minutes at 37 C, absorbance at 620 nm; read-out: ACSS2 Biochemical IC50
T1 construct: purchased OriGene Technologies, Inc
T1 sequence (Q9NR19 whole entry): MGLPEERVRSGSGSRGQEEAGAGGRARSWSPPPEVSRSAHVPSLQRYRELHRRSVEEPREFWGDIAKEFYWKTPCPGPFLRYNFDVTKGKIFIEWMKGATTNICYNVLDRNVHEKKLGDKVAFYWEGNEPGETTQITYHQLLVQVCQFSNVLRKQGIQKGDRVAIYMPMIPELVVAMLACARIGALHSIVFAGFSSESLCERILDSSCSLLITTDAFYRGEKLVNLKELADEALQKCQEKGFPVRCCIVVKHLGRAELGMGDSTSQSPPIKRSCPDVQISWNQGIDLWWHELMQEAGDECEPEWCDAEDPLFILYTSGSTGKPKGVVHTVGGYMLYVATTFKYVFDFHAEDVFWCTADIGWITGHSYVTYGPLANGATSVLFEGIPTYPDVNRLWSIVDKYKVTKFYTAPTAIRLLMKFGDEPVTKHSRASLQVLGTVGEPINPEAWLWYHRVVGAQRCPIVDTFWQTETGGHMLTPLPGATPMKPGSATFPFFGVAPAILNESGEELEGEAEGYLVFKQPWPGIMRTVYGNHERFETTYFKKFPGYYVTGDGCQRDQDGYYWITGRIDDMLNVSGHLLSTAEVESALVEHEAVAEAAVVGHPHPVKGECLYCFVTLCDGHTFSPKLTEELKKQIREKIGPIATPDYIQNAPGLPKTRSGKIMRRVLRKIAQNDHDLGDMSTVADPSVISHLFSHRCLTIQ
How it was run: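 10 nM human ACSS2 incubated 90 min at 37 C with compound, 300 μM ATP, 10 μM CoA, 5 mM NaAc in pH 7.5 Hepes buffer with 0.5 U/ml pyrophosphatase. Released phosphate detected with Biomol Green at 620 nm; IC50 by non-linear regression constrained to 0% and 100%.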

human ACSS1 protein = molecular target: T2, human ACSS1 protein (Homo sapiens, UniProt Q9NUB1); test: ACSS1 cell-free activity assay (pyrophosphatase-coupled, Biomol green); format: biochemical; details: 5 nM human ACSS1, 30 minutes at room temperature, absorbance at 620 nm; for pIC50: read-out: ACSS1 Biochemical IC50
T2 construct: purchased MyBioSource
T2 sequence (Q9NUB1 38-689): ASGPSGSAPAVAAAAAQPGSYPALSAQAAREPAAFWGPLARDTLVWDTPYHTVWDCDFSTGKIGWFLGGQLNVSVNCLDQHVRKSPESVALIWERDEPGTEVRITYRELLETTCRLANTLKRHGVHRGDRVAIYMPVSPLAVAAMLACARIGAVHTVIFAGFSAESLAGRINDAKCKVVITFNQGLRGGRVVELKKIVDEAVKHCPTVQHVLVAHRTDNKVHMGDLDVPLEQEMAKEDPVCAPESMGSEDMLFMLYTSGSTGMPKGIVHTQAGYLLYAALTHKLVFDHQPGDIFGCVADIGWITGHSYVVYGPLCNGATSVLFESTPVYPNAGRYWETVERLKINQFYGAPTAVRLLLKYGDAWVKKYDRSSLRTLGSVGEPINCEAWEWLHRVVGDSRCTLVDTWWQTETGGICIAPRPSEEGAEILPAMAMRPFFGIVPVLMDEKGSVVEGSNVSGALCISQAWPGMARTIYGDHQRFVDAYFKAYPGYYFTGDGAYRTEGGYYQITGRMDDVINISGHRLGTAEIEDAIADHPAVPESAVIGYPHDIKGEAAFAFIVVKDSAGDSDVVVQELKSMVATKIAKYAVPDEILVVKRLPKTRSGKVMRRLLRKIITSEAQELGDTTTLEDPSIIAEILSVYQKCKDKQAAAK
How it was run: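 5 nM human ACSS1 incubated 30 min at RT with compound in pH 7.5 Hepes buffer with 15 μM CoA, 5 mM acetate, 300 μM ATP, 2 mM MgCl2 and pyrophosphatase. Released phosphate detected with Biomol Green (30 min), absorbance 620 nm. IC50 from constrained non-linear regression.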

[1] = molecular target: T3, ACSS2 in MDA-MB-468 cells (Homo sapiens, UniProt Q9NR19); test: Cellular fatty-acid IC50: 13C-acetate incorporation into fatty acids (palmitate), LC-MS; format: cell-based; details: hypoxic conditions (1% O2), 75% charcoal stripped serum, 5 hours, 13C-acetate into palmitate, read-out: Cellular Fatty-acid IC50 High Serum MDA468
T3 construct: endogenous in cells; host or cells: MDA-MB-468 cells, hypoxia (1% O2)
T3 sequence (Q9NR19 whole entry): as the sequence (Q9NR19 whole entry) above
How it was run: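 MDA-MB-468 cells under hypoxia (1% O2) treated 5 h with compound (0.000512-1000 nM) in medium with 75% charcoal-stripped serum and 0.5 mM 13C-acetate. 13C-palmitate quantified by LC-MS (negative ion, RSIM). IC50 from inhibition versus no-compound control, background-subtracted, constrained 0–100% nonlinear fit.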

| SMILES | pIC50 (human ACSS2 protein) | ACSS1 Biochemical IC50 (nM) (human ACSS1 protein) | pIC50 [1] | pIC50 (human ACSS1 protein) |
| --- | --- | --- | --- | --- |
| COc1ccc(-c2[nH]c(C)c(C(=O)Nc3cccc(C(F)(F)F)c3)[n+]2[O-])cc1-c1c(C)cccc1C [Compound 171, 2-(6-methoxy-2′,6′-dimethyl-[1,1′-biphenyl]-3-yl)-5-methyl-4-((3-(trifluoromethyl)phenyl)carbamoyl)-1H-imidazole 3-oxide] | > 9.00 | Inactive | > 7.70 | – |
| CCC(F)(F)c1cccc(NC(=O)c2c(C)[nH]c(-c3ccc(OC)c(-c4c(C)cccc4C)n3)[n+]2[O-])c1 [Compound 149, 4-((3-(1,1-difluoropropyl)phenyl)carbamoyl)-2-(6-(2,6-dimethylphenyl)-5-methoxypyridin-2-yl)-5-methyl-1H-imidazole 3-oxide] | > 9.00 | Inactive | > 7.70 | – |
| CNC(=S)c1cccc(NC(=O)c2c(C)[nH]c(-c3ccc(OC)c(-c4c(C)cccc4C)c3)[n+]2[O-])c1 [Compound 196, 2-(6-methoxy-2′,6′-dimethyl-[1,1′-biphenyl]-3-yl)-5-methyl-4-((3-(methylcarbamothioyl)phenyl)carbamoyl)-1H-imidazole 3-oxide] | > 9.00 | Inactive | > 7.70 | – |
| CCC(F)(F)c1cccc(NC(=O)c2c(C)[nH]c(-c3cccc(-c4c(C)cccc4C)c3)[n+]2[O-])c1 [Compound 107, 4-((3-(1,1-difluoropropyl)phenyl)carbamoyl)-2-(2′,6′-dimethyl-[1,1′-biphenyl]-3-yl)-5-methyl-1H-imidazole 3-oxide] | > 9.00 | Inactive | > 7.70 | – |
| CCC(F)(F)c1cccc(NC(=O)c2c(C)[nH]c(-c3cc(-c4c(C)cccc4C)c(OC)cc3F)[n+]2[O-])c1 [Compound 125, 4-((3-(1,1-difluoropropyl)phenyl)carbamoyl)-2-(4-fluoro-6-methoxy-2′,6′-dimethyl-[1,1′-biphenyl]-3-yl)-5-methyl-1H-imidazole 3-oxide] | > 9.00 | Inactive | > 7.70 | – |
| Cc1cncc(C)c1-c1cc(-c2[nH]c(C)c(C(=O)Nc3cccc(C(F)(F)C4CC4)c3)[n+]2[O-])ccc1OC(F)F [Compound 115, 4-((3-(cyclopropyldifluoromethyl)phenyl)carbamoyl)-2-(4-(difluoromethoxy)-3-(3,5-dimethylpyridin-4-yl)phenyl)-5-methyl-1H-imidazole 3-oxide] | > 9.00 | Inactive | > 7.70 | – |
| CCC(F)(F)c1cccc(NC(=O)c2c(C)[nH]c(-c3ccc(Cl)c(-c4c(C)cccc4C)c3)[n+]2[O-])c1 [Compound 108, 2-(6-chloro-2′,6′-dimethyl-[1,1′-biphenyl]-3-yl)-4-((3-(1,1-difluoropropyl)phenyl)carbamoyl)-5-methyl-1H-imidazole 3-oxide] | > 9.00 | Inactive | 7.30 to 7.70 | – |
| CCC(F)(F)c1cccc(NC(=O)c2c(C)[nH]c(-c3cccc(-c4nccnc4C)c3)[n+]2[O-])c1 [Compound 110, 4-((3-(1,1-difluoropropyl)phenyl)carbamoyl)-5-methyl-2-(3-(3-methylpyrazin-2-yl)phenyl)-1H-imidazole 3-oxide] | > 9.00 | – | > 7.70 | < 7.52 |
| COc1ccc(-c2[nH]c(C)c(C(=O)Nc3cccc(-c4cn(C)nn4)c3)[n+]2[O-])cc1-c1c(C)cccc1C [Compound 199, 2-(6-methoxy-2′,6′-dimethyl-[1,1′-biphenyl]-3-yl)-5-methyl-4-((3-(1-methyl-1H-1,2,3-triazol-4-yl)phenyl)carbamoyl)-1H-imidazole 3-oxide] | > 9.00 | Inactive | 7.30 to 7.70 | – |
| CNC(=O)c1cccc(NC(=O)c2c(C)[nH]c(-c3ccc(OC)c(-c4c(C)cc(F)cc4C)c3)[n+]2[O-])c1 [Compound 185, 2-(4′-fluoro-6-methoxy-2′,6′-dimethyl-[1,1′-biphenyl]-3-yl)-5-methyl-4-((3-(methylcarbamoyl)phenyl)carbamoyl)-1H-imidazole 3-oxide] | > 9.00 | – | > 7.70 | < 7.52 |
| CCC(F)(F)c1cccc(NC(=O)c2c(C)[nH]c(-c3cc(CCN4CCOCC4)c(OC)c(-c4c(C)cccc4C)c3)[n+]2[O-])c1 [Compound 192, 4-((3-(1,1-difluoropropyl)phenyl)carbamoyl)-2-(6-methoxy-2′,6′-dimethyl-5-(2-morpholinoethyl)-[1,1′-biphenyl]-3-yl)-5-methyl-1H-imidazole 3-oxide] | > 9.00 | – | 7.30 to 7.70 | < 7.52 |
| CCC(F)(F)c1cccc(NC(=O)c2c(C)[nH]c(-c3ccc(C#N)c(-c4c(C)cccc4C)c3)[n+]2[O-])c1 [Compound 114, 2-(6-cyano-2′,6′-dimethyl-[1,1′-biphenyl]-3-yl)-4-((3-(1,1-difluoropropyl)phenyl)carbamoyl)-5-methyl-1H-imidazole 3-oxide] | > 9.00 | – | > 7.70 | < 7.52 |
| CNC(=O)c1cccc(NC(=O)c2c(C)[nH]c(-c3ccc(OC)c(-c4c(C)cccc4C)c3)[n+]2[O-])c1 [Compound 146, 2-(6-methoxy-2′,6′-dimethyl-[1,1′-biphenyl]-3-yl)-5-methyl-4-((3-(methylcarbamoyl)phenyl)carbamoyl)-1H-imidazole 3-oxide] | > 9.00 | Inactive | > 7.70 | – |
| COc1ccc(-c2[nH]c(C)c(C(=O)Nc3cccc(S(=O)(=O)N(C)C)c3)[n+]2[O-])cc1-c1c(C)cccc1C [Compound 179, 4-((3-(N,N-dimethylsulfamoyl)phenyl)carbamoyl)-2-(6-methoxy-2′,6′-dimethyl-[1,1′-biphenyl]-3-yl)-5-methyl-1H-imidazole 3-oxide] | 7.52 to 9.00 | Inactive | < 7.30 | – |
| Cc1cccc(C)c1-c1cc(F)cc(-c2[nH]c(C)c(C(=O)Nc3cccc(C(F)(F)C4CC4)c3)[n+]2[O-])c1 [Compound 129, 4-((3-(cyclopropyldifluoromethyl)phenyl)carbamoyl)-2-(5-fluoro-2′,6′-dimethyl-[1,1′-biphenyl]-3-yl)-5-methyl-1H-imidazole 3-oxide] | > 9.00 | Inactive | < 7.30 | – |
| COc1ccc(-c2[nH]c(C)c(C(=O)Nc3cccc(-c4cnn(C)n4)c3)[n+]2[O-])cc1-c1c(C)cccc1C [Compound 201, 2-(6-methoxy-2′,6′-dimethyl-[1,1′-biphenyl]-3-yl)-5-methyl-4-((3-(2-methyl-2H-1,2,3-triazol-4-yl)phenyl)carbamoyl)-1H-imidazole 3-oxide] | > 9.00 | Inactive | > 7.70 | – |
| Cc1cccc(C)c1-c1cc(-c2[nH]c(C)c(C(=O)Nc3cccc(C(F)(F)C4CC4)c3)[n+]2[O-])cc(C(C)O)c1 (stereo not drawn) [Compound 143, 4-((3-(cyclopropyldifluoromethyl)phenyl)carbamoyl)-2-(5-(1-hydroxyethyl)-2′,6′-dimethyl-[1,1′-biphenyl]-3-yl)-5-methyl-1H-imidazole 3-oxide] | > 9.00 | Inactive | 7.30 to 7.70 | – |
